The nature of one series: Determination of the logP values by HPLC on a reverse-phase column (C 18). The settings on record: HPLC on a reverse-phase column (C 18); separated α/β isomers. Type of series: physicochemical. Here is the method:
Determination of the logP Values
The logP values given in the table were determined in accordance with EEC Directive 79/831 Annex V.A8 by HPLC (high performance liquid chromatography) on a reverse-phase column (C 18). Temperature: 55° C.
Mobile phases for the determination in the acidic range (pH 3.4):
Mobile phase A: acetonitrile+1 ml of formic acid/liter. Mobile phase B: water+0.9 ml of formic acid/liter.
Gradient: from 10% mobile phase A/90% mobile phase B to 95% mobile phase A/5% mobile phase B over 4.25 min.
Calibration was carried out using unbranched alkan-2-ones (having 3 to 16 carbon atoms) with known logP values (determination of the logP values by the retention times using linear interpolation between two successive alkanones). The lambda max values were determined in the maxima of the chromatographic signals using the UV spectra from 200 nm to 400 nm.
With `Cc1ccc(C)c(C2=C(O)C3(CCC4(CCCO4)CC3)OC2=O)c1` (single isomer, unassigned) [Example I-2-a-2], the “log P*” value is recorded as 2.73.
Still for that read-out and setting: the figure for `Cc1ccc(C)c(C2=C(O)C3(CCC4(CCCO4)CC3)OC2=O)c1` (single isomer, unassigned) [Example I-2-a-3] is 2.29.
With `Cc1cc(C)c(C2=C(O)C3(CCC4(CCCO4)CC3)OC2=O)c(C)c1` (single isomer, unassigned) [Example I-2-a-4], the “log P*” value was determined as 2.52.
The same measure, in the same setting: the figure for `Cc1cc(C)c(C2=C(O)C3(CCC4(CCCO4)CC3)OC2=O)c(C)c1` (single isomer, unassigned) [Example I-2-a-5] is 3.00.
Regarding `CCc1cc(Br)cc(C)c1C1=C(O)C2(CCC3(CCCO3)CC2)OC1=O` (single isomer, unassigned) [Example I-2-a-6], the “log P*” value is recorded as 3.44.
Take `CCc1cc(Br)cc(C)c1C1=C(O)C2(CCC3(CCCO3)CC2)OC1=O` (single isomer, unassigned) [Example I-2-a-7]: the “log P*” value was 2.94.
With `CCc1cc(Cl)cc(CC)c1C1=C(O)C2(CCC3(CCCO3)CC2)OC1=O` (single isomer, unassigned) [Example I-2-a-8], the “log P*” value is given as 3.09.
On the same count and under the same terms, the figure for `CCc1cc(Cl)cc(CC)c1C1=C(O)C2(CCC3(CCCO3)CC2)OC1=O` (single isomer, unassigned) [Example I-2-a-9] is 3.62; for `COc1cc(C)cc(C)c1C1=C(O)C2(CCC3(CCCO3)CC2)OC1=O` (single isomer, unassigned) [Example I-2-a-10] it is 2.28; for `COc1cc(C)cc(C)c1C1=C(O)C2(CCC3(CCCO3)CC2)OC1=O` (single isomer, unassigned) [Example I-2-a-11] it is 2.66.
For the molecule `CCc1cc(C)cc(C)c1C1=C(O)C2(CCC3(CCCO3)CC2)OC1=O` (single isomer, unassigned) [Example I-2-a-14], the “log P*” value is 2.73.
`CCc1cc(C)cc(C)c1C1=C(O)C2(CCC3(CCCO3)CC2)OC1=O` (single isomer, unassigned) [Example I-2-a-15]: the “log P*” value is 3.21.
Consider `CCc1cc(C)cc(CC)c1C1=C(O)C2(CCC3(CCCO3)CC2)OC1=O` (single isomer, unassigned) [Example I-2-a-16], for which the “log P*” value was 2.99.
Regarding `CCc1cc(C)cc(CC)c1C1=C(O)C2(CCC3(CCCO3)CC2)OC1=O` (single isomer, unassigned) [Example I-2-a-17], the “log P*” value came to 3.47.
`CCc1cc(C)cc(Br)c1C1=C(O)C2(CCC3(CCCO3)CC2)OC1=O` (single isomer, unassigned) [Example I-2-a-28]: the “log P*” value was 2.73.
Consider `CCc1cc(Br)cc(C)c1C1=C(O)C2(CCC3(CCCO3)CC2)OC1=O` (single isomer, unassigned) [Example I-2-a-29], for which the “log P*” value came to 3.22.
The same measure, in the same setting: the figure for `Cc1cc(C2=C(O)C3(CCC4(CCCO4)CC3)OC2=O)c(C)cc1Br` (single isomer, unassigned) [Example I-2-a-30] is 3.28.
On to `Cc1cc(C2=C(O)C3(CCC4(CCCO4)CC3)OC2=O)c(C)cc1Br` (single isomer, unassigned) [Example I-2-a-31], for which the “log P*” value amounted to 2.77.
As to `Cc1cc(C)c(C2=C(O)C3(CCC4(CCCO4)CC3)OC2=O)c(Br)c1` (single isomer, unassigned) [Example I-2-a-32], the “log P*” value is listed as 2.48.
With `Cc1cc(C)c(C2=C(O)C3(CCC4(CCCO4)CC3)OC2=O)c(Br)c1` (single isomer, unassigned) [Example I-2-a-33], the “log P*” value is recorded as 2.95.
`COc1cccc(C)c1C1=C(O)C2(CCC3(CCCO3)CC2)OC1=O` (single isomer, unassigned) [Example I-2-a-34]: the “log P*” value is 2.05.
For the molecule `COc1cccc(C)c1C1=C(O)C2(CCC3(CCCO3)CC2)OC1=O` (single isomer, unassigned) [Example I-2-a-35], the “log P*” value is listed as 2.42.
The same measure, in the same setting: under `CCc1cc(Br)cc(Cl)c1C1=C(O)C2(CCC3(CCCO3)CC2)OC1=O` (single isomer, unassigned) [Example I-2-a-36] stands 2.77; under `CCc1cc(Br)cc(Cl)c1C1=C(O)C2(CCC3(CCCO3)CC2)OC1=O` (single isomer, unassigned) [Example I-2-a-37], 3.40; under `CCc1cc(Cl)c(C2=C(O)C3(CCC4(CCCO4)CC3)OC2=O)c(Br)c1` (single isomer, unassigned) [Example I-2-a-38], 2.79.
For `CCc1cc(Cl)c(C2=C(O)C3(CCC4(CCCO4)CC3)OC2=O)c(Br)c1` (single isomer, unassigned) [Example I-2-a-39], the “log P*” value was found to be 3.26.
In the case of `Cc1cc(C2=C(O)C3(CCC4(CCCO4)CC3)OC2=O)c(Cl)cc1Cl` (single isomer, unassigned) [Example I-2-a-40], the “log P*” value is 2.60.
In the case of `Cc1cc(C2=C(O)C3(CCC4(CCCO4)CC3)OC2=O)c(Cl)cc1Cl` (single isomer, unassigned) [Example I-2-a-41], the “log P*” value is given as 3.14.
In the case of `Cc1cc(C)c(-c2ccc(Cl)cc2)c(C)c1C1=C(O)C2(CCC3(CCCO3)CC2)OC1=O` (single isomer, unassigned) [Example I-2-a-42], the “log P*” value stood at 3.79.
On the same count and under the same terms, under `Cc1cc(C)c(-c2ccc(Cl)cc2)c(C)c1C1=C(O)C2(CCC3(CCCO3)CC2)OC1=O` (single isomer, unassigned) [Example I-2-a-43] stands 4.32; under `CCc1cc(Cl)cc(C)c1C1=C(O)C2(CCC3(CCCO3)CC2)OC1=O` (single isomer, unassigned) [Example I-2-a-44], 2.82; under `CCc1cc(Cl)cc(C)c1C1=C(O)C2(CCC3(CCCO3)CC2)OC1=O` (single isomer, unassigned) [Example I-2-a-45], 3.34.
Turning to `Cc1cc(C)c(C2=C(O)C3(CCC4(CCCO4)CC3)OC2=O)cc1C` (single isomer, unassigned) [Example I-2-a-48], the “log P*” value is listed as 2.99.
On to `Cc1cc(C)c(C2=C(O)C3(CCC4(CCCO4)CC3)OC2=O)cc1C` (single isomer, unassigned) [Example I-2-a-49], for which the “log P*” value is listed as 2.54.
Still for that read-out and setting: the figure for `Cc1ccc(-c2ccc(Cl)c(Cl)c2)cc1C1=C(O)C2(CCC3(CCCO3)CC2)OC1=O` (centres unmarked) [Example I-2-a-12] is 3.74.
Still for that read-out and setting: the figure for `Cc1ccc(-c2ccc(Cl)c(Cl)c2)cc1C1=C(O)C2(CCC3(CCCO3)CC2)OC1=O` (centres unmarked) [Example I-2-a-13] is 4.24.
Consider `Cc1ccc(-c2ccc(Cl)cc2)c(C)c1C1=C(O)C2(CCC3(CCCO3)CC2)OC1=O` (centres unmarked) [Example I-2-a-18], for which the “log P*” value was 3.52.
On the same count and under the same terms, the figure for `Cc1ccc(-c2ccc(Cl)cc2)c(C)c1C1=C(O)C2(CCC3(CCCO3)CC2)OC1=O` (centres unmarked) [Example I-2-a-19] is 4.06; for `O=C1OC2(CCC3(CCCO3)CC2)C(O)=C1c1cc(-c2ccc(Cl)cc2)ccc1Cl` (centres unmarked) [Example I-2-a-20] it is 3.25.
On to `O=C1OC2(CCC3(CCCO3)CC2)C(O)=C1c1cc(-c2ccc(Cl)cc2)ccc1Cl` (centres unmarked) [Example I-2-a-21], for which the “log P*” value worked out at 3.79.

Staying with this series, now noted: compounds of formula (I-2-b).
With `Cc1ccc(-c2ccc(Cl)cc2)cc1C1=C(OC(=O)C(C)C)C2(CCC3(CCCO3)CC2)OC1=O` (centres unmarked) [1-2-b-11], the “log P*” value was 5.86.

Values taken from patent US8859466B2, “Oxaspirocyclic spiro-substituted tetramic acid and tetronic acid derivatives” (Bayer CropScience AG, priority 2007, dated 2014).
